Consider eight molecules from patent EP4800004A1, “ARYLALKYLAMINE COMPOUND, AND PREPARATION METHOD THEREFOR AND USE THEREOF” (Renhe Yikang Group Co., Ltd., priority 2024, dated 2025).

Data set [1] in a line: Pharmacokinetic study in SD rats. As to conditions: Sprague-Dawley, rat, plasma, male SD rats, single dose via oral gavage; for bioavailability: relative to Evocalcet (100). The class given is in vivo. As to the method:
Animal Information: Male Sprague-Dawley (SD) rats, aged 7-8 weeks, were used. Each group consisted of 3-5 rats.
Dosing Information: The rats were fasted for more than 12 hours prior to administration. A single dose was administered via oral gavage.
Blood Sampling Time Points: Blood samples were collected from the tail vein before administration and at 0.25, 0.5, 1, 2, 4, 6, 8, and 24 hours post-administration. A volume of 100 µL of blood was collected at each time point.
Sample Processing and Storage: The blood samples were transferred into 1.5 mL microcentrifuge tubes, with 50 µL per tube (two tubes per sample). Centrifugation was completed within 2 hours. Whole blood samples were kept on ice prior to centrifugation. Centrifugation was performed at 4000 rpm, 2-8°C, for 10 minutes. After collecting the supernatant, it was stored at -80°C or below if not analyzed immediately.
Column: An InfinityLab Poroshell 120 SB-C18 column (2.1 × 100 mm, 2.7 µm) was used. Column Temperature: The temperature was maintained at 30°C. Flow Rate: The flow rate was set at 0.3 mL/min. Run Time: The total run time was 9.5 minutes. Post-run Time: A post-run time of 2 minutes was applied. Injection Volume: An injection volume of 2 µL was used. Mobile Phase: A mixture of methanol and 0.1% formic acid was employed as the mobile phase. Gradient Elution: Gradient elution was performed according to the table below.
Blood Sample Processing: 50 µL of plasma sample was aliquoted, and 25 µL of internal standard solution was added. The mixture was vortexed for 30 seconds. Then, 175 µL of methanol was added to precipitate proteins, and the mixture was vortexed again. The samples were centrifuged at 12,000 rpm for 10 minutes. Subsequently, 100 µL of the supernatant was collected and mixed with 300 µL of water. The final supernatant was injected for analysis.

A further data set addresses T1, human CaSR (Homo sapiens, UniProt P41180).
T1 construct: expressed in transfected cells
T1 sequence (P41180 20-1078): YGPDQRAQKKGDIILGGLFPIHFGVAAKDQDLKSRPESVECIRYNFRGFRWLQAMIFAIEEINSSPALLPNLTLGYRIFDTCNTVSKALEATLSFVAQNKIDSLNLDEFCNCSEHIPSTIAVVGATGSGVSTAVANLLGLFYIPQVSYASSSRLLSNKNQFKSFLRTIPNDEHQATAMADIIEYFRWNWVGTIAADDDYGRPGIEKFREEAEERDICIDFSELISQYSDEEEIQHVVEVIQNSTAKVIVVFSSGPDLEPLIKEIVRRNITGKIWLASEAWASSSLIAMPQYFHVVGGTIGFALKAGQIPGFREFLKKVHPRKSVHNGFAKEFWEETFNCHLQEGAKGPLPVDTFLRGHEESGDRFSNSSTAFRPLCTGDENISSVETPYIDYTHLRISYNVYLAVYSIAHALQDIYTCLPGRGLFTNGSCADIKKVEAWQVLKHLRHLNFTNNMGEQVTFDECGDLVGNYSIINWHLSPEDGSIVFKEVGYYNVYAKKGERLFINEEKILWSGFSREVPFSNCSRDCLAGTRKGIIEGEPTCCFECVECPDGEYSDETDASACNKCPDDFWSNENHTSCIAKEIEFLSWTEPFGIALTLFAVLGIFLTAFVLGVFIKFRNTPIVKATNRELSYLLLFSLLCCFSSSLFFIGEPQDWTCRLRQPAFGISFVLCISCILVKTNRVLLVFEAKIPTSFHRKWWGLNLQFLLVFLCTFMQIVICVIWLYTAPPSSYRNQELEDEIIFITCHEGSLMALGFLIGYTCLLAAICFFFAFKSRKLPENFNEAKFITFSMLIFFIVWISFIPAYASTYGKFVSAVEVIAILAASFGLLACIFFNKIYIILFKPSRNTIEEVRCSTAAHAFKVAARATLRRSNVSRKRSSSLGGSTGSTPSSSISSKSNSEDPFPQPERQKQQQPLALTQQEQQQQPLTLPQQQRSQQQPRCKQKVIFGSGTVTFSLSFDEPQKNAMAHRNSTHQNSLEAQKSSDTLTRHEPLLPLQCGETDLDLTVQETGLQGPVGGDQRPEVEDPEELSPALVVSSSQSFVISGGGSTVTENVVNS
In words: In vitro CaSR conformational (allosteric) activation, intracellular Ca2+ change in hCaSR-CHO cells (Fluo-4 NW, FLIPR). The class given is cell-based. The following applies: change in intracellular Ca2+ fluorescence intensity. As for the experimental part: The CaSR is a member of family C of G protein-coupled receptors (GPCR). Upon activation by extracellular Ca^2+ or specific compounds, CaSR triggers an increase in intracellular Ca^2+ concentration. To evaluate the effect of compounds on the allosteric activation of CaSR, a CHO cell line stably transfected with human CaSR (hCaSR-CHO) was utilized. Changes in intracellular Ca^2+ concentration were measured as a key indicator to assess the conformational activation of CaSR.
• 1. Preparation Before Plate Spreading: Twelve hours prior to cell spreading, a 384-well cell culture plate was coated with 0.1 mg/mL polylysine. • 2. Cell Spreading: Digested hCaSR-CHO cells were resuspended in complete medium, counted using a cell counter, and adjusted to a density of 5 × 10^5 cells/mL. A volume of 25 µL of cell suspension was inoculated into each well. After inoculation, the cells were incubated at 37 °C in a 5% CO2 incubator for 18 h. • 3. Preparation of Compound Test Solution: The test compounds were diluted to the required concentrations (10 µM, 2 µM, 400 nM, 80 nM, 16 nM, 3.2 nM, and 0.64 nM) and added to a 384-well spiked plate. Since the cell culture plate already contained 25 µL of Fluo-4 NW assay reagent and the instrument was set to deliver 20 µL of the system, the compound concentrations in the spiked plate were 2.25 times the actual assay concentrations. For example, […]. • 4. Preparation of Assay Reagents: According to the instructions of the Fluo-4 NW Calcium Assay Kit (Thermo, F36206), 1 mL of assay buffer was added to Component B to prepare a 250 mM probenecid solution. 100 µL of the probenecid solution was added to 10 mL of assay buffer and mixed thoroughly. Component A was added to the mixture to prepare a 1X dye loading solution. • 5. Fluorescent Dye Addition: The complete culture medium was discarded, and 25 µL of the 1X dye loading solution was added to the 384-well plate using a Multidrop automatic dispenser. The plate was incubated at 37 °C for 30 min in the dark, then transferred to room temperature for an additional 30 min. The plate was transferred to the FLIPER Tetra instrument (Molecular Devices). • 6. Data Acquisition: After adding 20 µL of the compound test solution, the excitation wavelength was set to 470-495 nm, and the emission was detected at 515-575 nm. The instrument's quality control board was used to ensure no errors before initiating detection. The detection duration was 660 seconds, and the raw data were exported at the end of the reading. • 7. Data Processing: The change in fluorescence intensity, representing intracellular calcium signals, was calculated by subtracting the minimum fluorescence value (average of 14-21 seconds) from the maximum fluorescence value (average of 40-80 seconds) after compound addition. Using GraphPad Prism 8.0, the EC50 values of individual compounds were determined by plotting the compound concentration on the x-axis and the change in fluorescence intensity on the y-axis.

The nature of data set [2]: Rat liver microsome stability test. The following applies: rat liver microsomes, PBS pH 7.4, 37 °C, maximum incubation time 60 minutes. It counts as in vitro ADME. As for the experimental part: Rat liver microsomes at a defined concentration, testosterone (positive control), tolbutamide (internal standard), the test compounds, and PBS (pH 7.4) were incubated at 37 °C. The reaction was quenched with methanol at 0, 5, 10, 20, 30, and 60 min, respectively. The samples were pretreated and analyzed using LC-MS. Data processing involved plotting the ratio of the peak area of the test compound to that of the internal standard (y-axis) against time (x-axis). The half-life (t1/2) was calculated from the data. Table 3. Stability data of compounds in rat liver microsomes.
For orientation: Liver microsomes are vesicles of endoplasmic reticulum, rich in cytochrome P450 enzymes.

In data set [3] the test system is parathyroid hormone (PTH). The data set is described as follows: In vivo inhibition of blood PTH concentration in five-sixths nephrectomy hyperparathyroidism model rats (ELISA). The following applies: PTH reduction at 1 hour post-administration compared with baseline PTH concentration at 0 hour; single dose by oral gavage; male SD rats, five-sixths nephrectomy plus special diet. The source says: Male SD rat models of hyperparathyroidism were constructed by five-sixths nephrectomy plus a special diet. Blood parathyroid hormone (PTH) level was used as the endpoint. ELISA was applied to determine the changes in plasma PTH concentration following compound treatment, thereby assessing the in vivo activity of the compound.
• 1. Model Construction: Specific pathogen-free (SPF)-grade male SD rats aged 7-8 weeks were used. The rats were acclimatized with normal feed for 1 week. Two-thirds of the left kidney was removed, and the rats were allowed to recover with normal feed for 1 week. Subsequently, the right kidney was removed, and the rats were allowed to recover with normal feed for an additional week. The rats were then fed a special diet (0.5% calcium and 1.2% total phosphorus) for 2 weeks. • 2. Detection and Grouping: Approximately 300 µL of blood was collected from the tail vein into a coagulation-promoting tube, left at room temperature for 30 minutes, and centrifuged at 12,000 rpm for 3 minutes to obtain serum samples. The concentration of intact PTH (1-84) in the serum was detected using the MicroVue Intact PTH EIA-96 Test (Quidel, catalog No. 60-2500). The rats were grouped based on their PTH concentration levels, ensuring that the mean PTH concentration in each group was approximately the same. • 3. Administration and Activity Testing: A single dose of the compound was administered by oral gavage. Blood samples were collected before and after administration, and serum was obtained using the method described in step 2. PTH levels were measured using ELISA.

Where only a bound is given, the exact number is not on record here.

What is called AUC(0-inf) is the area under the concentration-time curve extrapolated to infinity. High values mean more exposure, low ones less exposure. A word on the Cmax: it is the maximum level reached in the sampled fluid or tissue. The Tmax is the time from dosing to the highest level. One may read the half-life as the time in which the quantity being followed falls by half. Low readings indicate rapid decline, high ones slow decline. As usually defined, the EC50 is the concentration that produces a half-maximal response. A lower EC50 goes with greater potency. Consider `C[C@@H](N[C@H]1CCN(c2ccc(CC(=O)O)cc2F)C1)c1cccc2ccccc12` [Compound 2, 2-(3-fluoro-4-((S)-3-(((R)-1-(naphthalen-1-yl)ethyl)amino)pyrrolidin-1-yl)phenyl)acetic acid], for which, in data set [1], the bioavailability is 136%, the area under the curve AUC(0-inf) came to 34700 ± 2710 ng·h/mL, the highest level (Cmax) was 3550 ± 283 ng/mL and the Tmax was found to be 0.65 ± 0.34 h. Besides, in data set [1], the half-life was 5.91 ± 0.21 h. Further, it took 27.1 nM to reach a half-maximal effect at human CaSR (EC50). In addition, the half-life in data set [2] is > 1 h. The “The reduction efficiency (%)” value in data set [3] is on record as 91%.

`COc1cc(CC(=O)O)ccc1N1CC[C@H](N[C@H](C)c2cccc3ccccc23)C1` [Compound 6, 2-(3-methoxy-4-((S)-3-(((R)-1-(naphthalen-1-yl)ethyl)amino)pyrrolidin-1-yl)phenyl)acetic acid] showed an EC50 on human CaSR of 42.5 nM.

On to `C[C@@H](N[C@H]1CCN(c2ccc(CC(=O)O)cc2)C1)c1cccc2ccccc12` [Evocalcet, reference compound], for which, in data set [1], the bioavailability was 100%, the area under the curve AUC(0-inf) came to 25400 ± 7360 ng·h/mL, the Cmax stood at 2520 ± 212 ng/mL and the time of peak concentration (Tmax) was 1.15 ± 1.6 h. Further, the half-life in data set [1] is 4.83 ± 0.39 h. Further, the concentration for a half-maximal effect (EC50) at human CaSR was 67.6 nM. Further, in data set [2], the half-life is > 1 h.

In turn, `COc1cc(N2CC[C@H](N[C@H](C)c3cccc4ccccc34)C2)ccc1CC(=O)O` [Compound 7, 2-(2-methoxy-4-((S)-3-(((R)-1-(naphthalen-1-yl)ethyl)amino)pyrrolidin-1-yl)phenyl)acetic acid] returned a concentration for a half-maximal effect (EC50) on human CaSR of 55.5 nM.

With `Cc1cc(CC(=O)O)ccc1N1CC[C@H](N[C@H](C)c2cccc3ccccc23)C1` [Compound 3, 2-(3-methyl-4-((S)-3-(((R)-1-(naphthalen-1-yl)ethyl)amino)pyrrolidin-1-yl)phenyl)acetic acid], in data set [1], the bioavailability is 144%, the AUC(0-inf) came out at 36600 ± 1970 ng·h/mL, the highest concentration (Cmax) is 3770 ± 584 ng/mL and the time to peak (Tmax) worked out at 0.55 ± 0.27 h. In data set [1], this molecule had a half-life of 5.17 ± 0.38 h. The molecule also showed an EC50 on human CaSR of 20.7 nM. In addition, the half-life in data set [2] was > 1 h. Also, the “The reduction efficiency (%)” value in data set [3] is listed as 93%.

Consider `Cc1cc(N2CC[C@H](N[C@H](C)c3cccc4ccccc34)C2)ccc1CC(=O)O` [Compound 4, 2-(2-methyl-4-((S)-3-(((R)-1-(naphthalen-1-yl)ethyl)amino)pyrrolidin-1-yl)phenyl)acetic acid], for which, at human CaSR, the midpoint of the response, the EC50, lay at 52 nM.

Consider `C[C@@H](N[C@H]1CCN(c2ccc(CC(=O)O)c(F)c2)C1)c1cccc2ccccc12` [Compound 1, 2-(2-fluoro-4-((S)-3-(((R)-1-(naphthalen-1-yl)ethyl)amino)pyrrolidin-1-yl)phenyl)acetic acid], for which it took 39.7 nM to reach a half-maximal effect at human CaSR (EC50).

On to `C[C@@H](N[C@H]1CCN(c2cc(F)c(CC(=O)O)c(F)c2)C1)c1cccc2ccccc12` [Compound 5, 2-(2,6-difluoro-4-((S)-3-(((R)-1-(naphthalen-1-yl)ethyl)amino)pyrrolidin-1-yl)phenyl)acetic acid], for which the half-maximal effective concentration (EC50) on human CaSR was found to be 39.8 nM. Also, the half-life in data set [2] was > 1 h. Further, the “The reduction efficiency (%)” value in data set [3] came to 81%.
